From patent US20080160108A1, “Method of treating muscular dystrophies with an inhibitor of histone deacetylase” (Centre National de la Recherche Scientifique- CNRS, a …, priority 2002, published 2008) come the findings set out here.

Experiment [1] relates to utrophin. As to the kind of experiment: Utrophin in muscle of healthy OF1 mice injected i.p. Format: in vivo, mouse. The method, then:
OF1 mice were injected daily with i.p. and for 6 weeks with 100, 200 or 300 mg/kg/day either with arginine butyrate or with physiological serum. No utrophin was observed on the membrane in the muscle of the mice injected with the physiological serum used as control (“non-treated”). […] This augmentation is dosage-dependent. The induction of utrophin under the muscular membrane is significant probably on account of an additive effect of the arginine via the NO and of the butyrate via the activation of the transcription of the utrophin gene.

In experiment [2] the test system is utrophin. As to the kind of experiment: Utrophin in muscle of mdx mice injected i.p., immunofluorescence and Western blot. Format: in vivo, mouse. Conditions: 200 mg/kg/day i.p. daily for 6 weeks. The method, then:
Mdx mice were injected daily i.p. and for 6 weeks with 200 mg/kg/day either with butyrate or with L-arginine or with physiological serum. It is observed that the utrophin is poorly expressed in the muscle of the mdx mice injected with physiological serum used as control. […] It should be noted that the augmentation of utrophin is greater in the case of the mice injected with butyrate. The augmentation of the utrophin was quantified in Western blot.

Experiment [3] has as its system utrophin. The experiment is described as follows: Utrophin expression in myotubes of mdx mice, Western blot. Format: cell-based, mouse. Conditions: myotubes of dystrophic mdx mice (line xlt), 5 mM, 48 h. The method, then: Myotubes of dystrophic mdx mice (line xlt) are treated with 5 mM of butyrate for 48 h. The augmentation of utrophin is then quantified in Western blot.

arginine butyrate: in the experiment on utrophin [1] (OF1 mice, 100, 200 or 300 mg/kg/day i.p. daily for 6 weeks), the “dose dependence of the augmentation of utrophin” value is “dosage-dependent”. In the experiment on utrophin [1] (OF1 mice, 100, 200 or 300 mg/kg/day i.p. daily for 6 weeks, vs physiological serum control), the “utrophin localisation in muscle” value is recorded as “utrophin appears very clearly under the muscular membrane”. Also, the quantity of utrophin result with utrophin [1] (healthy muscles and mdx mouse (FIG. 4), summary statement) is “significantly augments the quantity of utrophin”.

With `CCCC(=O)O` [butyrate], the “augmentation of expression of utrophin (factor, intensity of Western blot bands)” value with utrophin [2] and with utrophin [3] was 2 in each case.

`N=C(N)NCCC[C@H](N)C(=O)O` [L-arginine]: the “utrophin localisation in muscle” value in the experiment with utrophin [2] (vs physiological serum control) was “the utrophin appears under the muscular membrane”.
